# In paper PMC4339887, “Selective Sirt2 inhibition by ligand-induced rearrangement of the active site” (Nature Communications, 2015):
# Tests used:
# human Sirt1 = target: T1, human Sirt1 (Homo sapiens, UniProt Q96EB6); test: HPLC-based conversion assay, non-labelled acetyl-lysine α-tubulin peptide; settings: read-out: inhibition of Sirt1
# T1 sequence (Q96EB6 133-747): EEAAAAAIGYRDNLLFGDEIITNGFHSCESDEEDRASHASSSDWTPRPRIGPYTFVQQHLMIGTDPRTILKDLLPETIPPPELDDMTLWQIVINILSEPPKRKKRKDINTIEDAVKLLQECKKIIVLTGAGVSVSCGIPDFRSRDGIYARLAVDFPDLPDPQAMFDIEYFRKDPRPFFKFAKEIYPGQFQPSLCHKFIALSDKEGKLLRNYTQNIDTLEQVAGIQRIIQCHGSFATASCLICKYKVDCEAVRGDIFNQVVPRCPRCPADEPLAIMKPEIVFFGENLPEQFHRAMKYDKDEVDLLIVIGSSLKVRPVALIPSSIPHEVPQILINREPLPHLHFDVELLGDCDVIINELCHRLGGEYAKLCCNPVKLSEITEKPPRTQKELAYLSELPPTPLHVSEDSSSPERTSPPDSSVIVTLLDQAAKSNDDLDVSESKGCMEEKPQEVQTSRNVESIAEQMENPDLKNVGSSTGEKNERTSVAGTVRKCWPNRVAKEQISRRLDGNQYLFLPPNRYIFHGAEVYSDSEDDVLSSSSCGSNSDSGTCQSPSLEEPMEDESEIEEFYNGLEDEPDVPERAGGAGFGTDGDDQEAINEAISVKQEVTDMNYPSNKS
# [1] = tested on: mitochondrial lysine-acetylation in HEK293 cells; test: mitochondrial protein acetylation, western blot of mitochondrial extracts; assay type: cell-based; settings: 16 h
# Protocol: page 27: Cell cultiva tion. HEK-293 cells (ATCC accession no. CRL-1573) were grown in Dulbecco's modified Eagle's medium (DMEM, PAA) containing 10% (vol/vol) fetal calf serum (FCS, PAA), 1% (vol/vol) penicillin (PAA), 1% (vol/vol) streptomycin (PAA), 1% (vol/vol), L- glutamine (PAA) at 37 °C in a 5% (vol/vol) CO2 atmosphere. Mitochondrial extra ction. HEK-293 cells (ATCC accession no. CRL-1573) were treated with nicotinamide or […]2 at the indicated concentrations for 16 h. Cells were washed in PBS and lysed in 5 packed cell volumes of lysis buffer (20 mM HEPES/KOH, 250 mM sucrose; 10 mM KCl, 1.5 mM MgCl2, 1 mM EDTA, 1 mM EGTA, 1 mM DTT; 0.1 mM PMSF, 1uComplete Protease Inhibitor Cocktail (Roche), pH 7.5). Cells were then homogenized in a Dounce homogenizer and 10% (vol/vol) of sample was removed for use as whole cell extract (WCE). To the remaining lysate, unbroken cells and nuclei were removed by centrifugation (10 min, 800g). The supernatant was transferred and centrifuged (10 min, 7,000g) to pellet mitochondria. Mitochondria were washed twice in lysis buffer, repeating centrifugation after each wash, followed by resuspending washed mitochondria in lysis buffer. […] Lysates were cleared by centrifugation, protein concentrations were quantitated and normalized with 1u Laemmli Buffer. […]
# Human Sirt2_56–356 = target: T2, Human Sirt2_56–356 (Homo sapiens, UniProt Q8IXJ6); test: competition analyses / inhibition kinetics, α-tubulin peptide, HPLC; assay type: biochemical; settings: NAD+ competition analysis
# T2 construct: Human Sirt2_56–356 (0.2 mg ml^−1 final concentration); His10 (N, cleaved yes); made in house; host or cells: E. coli BL21(DE3)Codonplus RIPL
# T2 sequence (Q8IXJ6 56-356): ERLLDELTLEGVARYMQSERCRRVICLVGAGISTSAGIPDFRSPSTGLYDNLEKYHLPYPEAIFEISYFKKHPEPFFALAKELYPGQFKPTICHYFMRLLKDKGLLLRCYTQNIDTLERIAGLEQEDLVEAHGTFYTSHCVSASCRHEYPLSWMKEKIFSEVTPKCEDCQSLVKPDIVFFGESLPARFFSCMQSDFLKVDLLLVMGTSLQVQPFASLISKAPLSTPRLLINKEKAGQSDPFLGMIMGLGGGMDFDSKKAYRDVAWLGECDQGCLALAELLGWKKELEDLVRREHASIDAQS
# Text: The peak areas were integrated and converted to initial velocities calculated from the peak areas as the fraction of deacetylated peptide from total peptide.
# human Sirt3 = target: T3, human Sirt3 (Homo sapiens, UniProt Q9NTG7); test: HPLC-based conversion assay, non-labelled acetyl-lysine α-tubulin peptide; settings: 100 μM, acetyl-lysine substrate
# T3 sequence (Q9NTG7 118-395): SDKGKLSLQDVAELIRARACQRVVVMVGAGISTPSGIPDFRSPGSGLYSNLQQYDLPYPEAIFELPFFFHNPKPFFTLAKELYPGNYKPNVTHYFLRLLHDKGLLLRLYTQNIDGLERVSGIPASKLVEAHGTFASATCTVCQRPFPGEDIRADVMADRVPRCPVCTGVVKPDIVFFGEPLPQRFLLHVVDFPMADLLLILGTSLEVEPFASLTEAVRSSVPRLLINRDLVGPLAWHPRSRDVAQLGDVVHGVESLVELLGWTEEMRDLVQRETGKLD
structure (smiles),measurement,setting,value
Cc1cc(C)nc(SCC(=O)Nc2ncc(Cc3cccc4ccccc34)s2)n1 [SirReal2],inhibition at 100 µM,human Sirt1,22%
same,acetylation of mitochondrial proteins,[1],does not alter
same,mode of inhibition towards NAD+,Human Sirt2_56–356,partially non-competitive
same,effect on activity of Sirt3,human Sirt3,very little effect
